This is an account of results in PubChem BioAssay (NCI).

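Method: 48-hour compound exposure of cells in 96-well plates, five concentrations, linear interpolation of endpoints. GI50 is the concentration that inhibits growth by half. TGI is the concentration that stops growth completely.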 Some results are limits rather than exact numbers.

Test systems include NCI-H226 lung; SF-268 CNS; UACC-62 melanoma; HCT-116 colon; NCI-H23 lung; 786-0 renal; SN12C renal; TK-10 renal; SNB-19 CNS; K-562 leukemia.
Test in all cases: inhibition of tumour cell growth, NCI panel, 48 h

`Oc1ccc2cc(Br)ccc2c1-c1c(O)ccc2cc(Br)ccc12`: the GI50 was 2.66 µM with NCI-H226 lung; 3.27 µM with SF-268 CNS; 2.2 µM in the assay on UACC-62 melanoma; 1.95 µM in the assay on HCT-116 colon; 2.23 µM in the assay with NCI-H23 lung; 2.38 µM in the assay on 786-0 renal. In addition, the GI50 is 2.04 µM with SN12C renal, 2.52 µM with TK-10 renal, 3.92 µM with SNB-19 CNS and 2.88 µM in the assay on K-562 leukemia. The TGI in the assay with NCI-H226 lung stood at 8.9 µM; in the assay on SF-268 CNS, 13.2 µM; with UACC-62 melanoma it was 8.5 µM; with HCT-116 colon, 4.01 µM; with NCI-H23 lung it was 5.82 µM; in the assay on 786-0 renal it was 4.64 µM. Besides, the TGI amounted to 4.81 µM in the assay with SN12C renal, 5.86 µM in the assay with TK-10 renal, 15.9 µM in the assay on SNB-19 CNS and 11.1 µM in the assay on K-562 leukemia.

Take `CC1=CC(=NC(=O)CBr)C=C/C1=N\S(=O)(=O)c1ccccc1`: the GI50 was 15.1 µM in the assay on NCI-H226 lung; 3.69 µM in the assay with SF-268 CNS; 2.58 µM with UACC-62 melanoma; 2.05 µM in the assay on HCT-116 colon; 2.36 µM in the assay on NCI-H23 lung; 3.37 µM in the assay with 786-0 renal. The GI50 was 1.83 µM with SN12C renal, 2.85 µM with TK-10 renal, 13.6 µM with SNB-19 CNS and 2.54 µM in the assay with K-562 leukemia. Besides, the TGI in the assay with NCI-H226 lung came out at 40.2 µM; in the assay with SF-268 CNS, 13.7 µM; in the assay with UACC-62 melanoma, 10.7 µM; with HCT-116 colon, 4.97 µM; with NCI-H23 lung, 5.99 µM; in the assay with 786-0 renal, 10.8 µM. The TGI is 3.59 µM with SN12C renal, 7.04 µM with TK-10 renal, 26.9 µM in the assay on SNB-19 CNS and 6.44 µM in the assay with K-562 leukemia.

On to `COc1cc(/C=C2\[C@H]3c4c(c(OC)c(C)c(OC)c4OC)C[C@@H](C(=O)N2Cc2ccccc2)N3C(=O)OCC(C)C)c(OC)c(C)c1OC`, for which the TGI in the assay on NCI-H226 lung was 40.9 µM; in the assay on SF-268 CNS, above 100 µM; with UACC-62 melanoma it was above 100 µM; in the assay on HCT-116 colon, above 100 µM; with NCI-H23 lung, above 100 µM; in the assay on 786-0 renal it was above 100 µM. For the same compound, the TGI in the assay on SN12C renal, in the assay with TK-10 renal, in the assay on SNB-19 CNS and in the assay with K-562 leukemia was above 100 µM each time.

As for `COc1ccc2c(c1)c(-c1ccc(-c3cn(S(=O)(=O)c4ccccc4)c4ccc(OC)cc34)s1)cn2S(=O)(=O)c1ccccc1`, the GI50 in the assay on NCI-H226 lung, with SF-268 CNS, in the assay on UACC-62 melanoma, in the assay on HCT-116 colon, with NCI-H23 lung and with 786-0 renal was above 100 µM in each case. Also, the GI50 with SN12C renal, in the assay on TK-10 renal, with SNB-19 CNS and with K-562 leukemia was above 100 µM in each case. The TGI in the assay with NCI-H226 lung, with SF-268 CNS, in the assay with UACC-62 melanoma, in the assay with HCT-116 colon, in the assay with NCI-H23 lung and in the assay on 786-0 renal was above 100 µM throughout. Also, the TGI in the assay on SN12C renal, with TK-10 renal, in the assay with SNB-19 CNS and with K-562 leukemia was above 100 µM in each case.

As for `COc1cc2nc3sc(C(=O)Nc4ccc(C(=O)OC(C)C)cc4)c(C(=O)Nc4ccc(Cl)cc4C)n3c(=O)c2cc1OC`, the GI50 with NCI-H226 lung was 16.6 µM; with SF-268 CNS, 9.45 µM; in the assay on UACC-62 melanoma, 6.8 µM; in the assay with HCT-116 colon, 11.3 µM; in the assay on NCI-H23 lung, 13.6 µM; in the assay with 786-0 renal, 5.17 µM. For the same compound, the GI50 in the assay on SN12C renal is 22.8 µM; in the assay on TK-10 renal, 2.45 µM; in the assay with SNB-19 CNS it was 28 µM; in the assay with K-562 leukemia, 5.29 µM. Moreover, the TGI in the assay on NCI-H226 lung was 43.4 µM; in the assay on SF-268 CNS, 43.3 µM; with UACC-62 melanoma, 91.8 µM; with HCT-116 colon, above 100 µM; in the assay with NCI-H23 lung, 40.5 µM; in the assay with 786-0 renal, 28 µM. Further, the TGI with SN12C renal is 71.1 µM; with TK-10 renal, 12.7 µM; in the assay with SNB-19 CNS it was 95.3 µM; in the assay with K-562 leukemia it was above 100 µM.

In the case of `COc1ccc2c(=O)c(C)c(-c3ccccc3)oc2c1CN(C)C`, the TGI in the assay with NCI-H226 lung, in the assay with SF-268 CNS, with UACC-62 melanoma, in the assay on HCT-116 colon, with NCI-H23 lung and in the assay with 786-0 renal was above 100 µM throughout. Besides, the TGI in the assay with SN12C renal, in the assay with TK-10 renal, in the assay on SNB-19 CNS and in the assay on K-562 leukemia was above 100 µM each time.

Turning to `C/C(=C\C(C)COCc1ccccc1)[C@H](COCc1ccccc1)OCc1ccccc1` (stereo not given in full), the TGI in the assay with NCI-H226 lung, in the assay on SF-268 CNS, in the assay with UACC-62 melanoma, in the assay with HCT-116 colon, with NCI-H23 lung and with 786-0 renal was above 100 µM in each case. Besides, the TGI in the assay with SN12C renal, with TK-10 renal, in the assay on SNB-19 CNS and in the assay on K-562 leukemia was above 100 µM in each case.

Take `CCOC12OC3=C(CC1CC1=C(CCC1=O)O2)C(=O)CC3` (stereo not given): the TGI with NCI-H226 lung, with SF-268 CNS, in the assay on UACC-62 melanoma, with HCT-116 colon, in the assay on NCI-H23 lung and in the assay on 786-0 renal was above 100 µM throughout. Further, the TGI in the assay with SN12C renal, in the assay on TK-10 renal, in the assay on SNB-19 CNS and with K-562 leukemia was above 100 µM in each case.

`Nc1nc(N)c(N=O)c(Nc2ccc(O)cc2)n1`: the TGI is 96 µM in the assay with NCI-H226 lung; above 83.8 µM with SF-268 CNS; above 100 µM in the assay with UACC-62 melanoma; above 100 µM with HCT-116 colon; above 100 µM in the assay on NCI-H23 lung; above 95.5 µM in the assay with 786-0 renal. Further, the TGI in the assay with SN12C renal is above 100 µM; in the assay with TK-10 renal it was above 100 µM; with SNB-19 CNS, above 100 µM; with K-562 leukemia it was above 92.1 µM.
